According to patent US20240109941A1 (University of California, published 2024):
Where two headings read alike, the source gives them in different places.

B1: CghSAMPa (full length stable antimicrobial peptide) (peptide)
chain: MCCNRGKNVSIENLHQGFTHIFESTFESTEGVAEYVSHPSHVEYANLFLANLEKVLVIDYKPTTVRV
notes: In the native gel it ran as polymers, 'likely hexamers based on the molecular weight'; also called MaSSAMP; Syd72SSAMP1
B2: CghSAMPa helix 2 (peptide)
peptide: SHVEYANLFLANLEKVLVIDYK
notes: 22-residue fragment of CghSAMPa holding only the second alpha-helix; In the native gel it ran as polymers, likely hexamers; also called MaSSAMP-helix2; SAMP-helix 2

How the values were obtained:
[1] = tested on: Liberibacter crescens; format: cell-based; conditions: Liberibacter crescens 10^6/mL; for anti-bacterial activity (viability staining, confocal microscopy): 30 μM, 2 hours
[2] = tested on: defense marker genes, including PR2, PAL, and CHI; format: in vivo; conditions: 10 μM spray, Carrizo seedlings
[3] = molecular target: the molecule itself; assay: native PAGE, self-association
[4] = tested on: B. thuringiensis; format: cell-based; conditions: compared to L. crescens; concentrations shown in FIG. 5
[5] = tested on: E. coli; format: cell-based; conditions: compared to L. crescens; concentrations shown in FIG. 5

Row | Molecule | anti-bacterial activity (viability staining, confocal microscopy) [1] | anti-bacterial activity (viability staining, confocal microscopy) ([1]; listed as helix 2) | anti-bacterial activity compared to full length CghSAMPa (viability staining) ([1]; 5 hours, same concentration or triple dosages of helix 2 vs full length) | induction of defense response (PR2, PAL, CHI expression normalized to Ubiquitin) ([2]; 1 day post-treatment) | duration of defense gene induction ([2]; time course up to 7 days post treatment) | binding result [3] | tolerance of B. thuringiensis to SAMP treatment [4] | tolerance of E. coli to SAMP treatment [5]
1 | SHVEYANLFLANLEKVLVIDYK [CghSAMPa helix 2, polypeptide containing CghSAMPa helix 2] | plays an important role in anti-bacterial activity | found to be a functional SAMP | retained much of the anti-bacterial activity of full length SAMP | induced a defense response | maintained for the 7-day time period |  |  | 
2 | B1 |  |  |  |  |  | binds | highly tolerant | more tolerant of SAMP treatment compared to L. crescens
3 | B2 |  |  |  |  |  | binds |  | 
